Measured values published in PubChem BioAssay (NCI).
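1) Cells in 96-well plates. 2) Compound, 48 h, 5 concentrations. 3) Linear interpolation between surrounding doses. 4) Unreached endpoint = highest concentration. TGI: concentration producing complete growth inhibition.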

How the values were obtained:
Test in all cases: NCI tumour cell line growth inhibition, 48 h
[1] = test system: ACHN renal
[2] = test system: A549 NSCLC
[3] = test system: DU-145 prostate
[4] = test system: CCRF-CEM leukemia
[5] = test system: MDA-MB-231 breast
[6] = test system: SR leukemia
[7] = test system: HCT-116 colon
[8] = test system: SNB-75 CNS
[9] = test system: NCI-H460 lung
[10] = test system: NCI-H522 lung
[11] = test system: MCF7 breast
[12] = test system: IGROV1 ovarian
[13] = test system: T-47D breast
[14] = test system: NCI/ADR-RES ovarian
[15] = test system: SF-295 CNS
[16] = test system: UACC-62 melanoma
[17] = test system: RXF 393 renal
[18] = test system: UACC-257 melanoma
[19] = test system: U251 CNS
[20] = test system: SN12C renal
[21] = test system: UO-31 renal
[22] = test system: MDA-N
[23] = test system: CAKI-1 renal
[24] = test system: MALME-3M melanoma
[25] = test system: SK-MEL-5 melanoma
[26] = test system: SNB-19 CNS
[27] = test system: OVCAR-3 ovarian
[28] = test system: HT29 colon
[29] = test system: M14 melanoma
[30] = test system: OVCAR-5 ovarian
[31] = test system: NCI-H23 lung
[32] = test system: SF-268 CNS
[33] = test system: COLO 205 colon
[34] = test system: HCT-15 colon
[35] = test system: OVCAR-4 ovarian
[36] = test system: NCI-H226 lung
[37] = test system: HCC-2998 colon
[38] = test system: SK-MEL-28 melanoma
[39] = test system: HOP-92 NSCLC
[40] = test system: MDA-MB-435
[41] = test system: SK-MEL-2 melanoma
[42] = test system: PC-3 prostate
[43] = test system: 786-0 renal
[44] = test system: SF-539 CNS
[45] = test system: LOX IMVI melanoma
[46] = test system: HOP-62 NSCLC
[47] = test system: A498 renal
[48] = test system: HL-60(TB) leukemia
[49] = test system: K-562 leukemia
[50] = test system: BT-549 breast
[51] = test system: MOLT-4 leukemia
[52] = test system: RPMI-8226 leukemia
[53] = test system: KM12 colon
[54] = test system: OVCAR-8 ovarian
[55] = test system: TK-10 renal
[56] = test system: HS 578T breast

In the case of `CC(=O)OCC1OC(n2c3c(cc(C#N)c2=O)CCCCCC3)C(OC(C)=O)C(OC(C)=O)C1OC(C)=O` (stereo unspecified), the TGI [1] is reported as greater than 100 µM, the TGI [2] is reported as greater than 100 µM and the TGI [3] is reported as greater than 100 µM. The TGI [4] was greater than 100 µM, the TGI [5] was greater than 100 µM and the TGI [6] was greater than 100 µM. The TGI [7] was greater than 100 µM, the TGI [8] was greater than 100 µM and the TGI [9] was greater than 100 µM. The TGI [10] was greater than 100 µM, the TGI [11] was greater than 100 µM and the TGI [12] was greater than 100 µM. It also gave a TGI [13] of 90.3 µM, a TGI [14] greater than 100 µM and a TGI [15] greater than 100 µM. For the same compound, the TGI [16] was greater than 100 µM, the TGI [17] was greater than 100 µM and the TGI [18] was greater than 100 µM. The TGI [19] was greater than 100 µM, the TGI [20] was greater than 100 µM and the TGI [21] was greater than 100 µM. It also gave a TGI [22] greater than 100 µM, a TGI [23] greater than 100 µM and a TGI [24] greater than 100 µM. The TGI [25] was greater than 100 µM, the TGI [26] was greater than 100 µM and the TGI [27] was greater than 100 µM. The TGI [28] was greater than 100 µM, the TGI [29] was greater than 100 µM and the TGI [30] was greater than 100 µM. It also gave a TGI [31] greater than 100 µM, a TGI [32] greater than 100 µM and a TGI [33] greater than 100 µM. It also gave a TGI [34] greater than 100 µM, a TGI [35] greater than 100 µM and a TGI [36] greater than 100 µM. The TGI [37] was greater than 100 µM, the TGI [38] was greater than 100 µM and the TGI [39] was greater than 100 µM. It also gave a TGI [40] greater than 100 µM, a TGI [41] greater than 100 µM and a TGI [42] greater than 100 µM. It also gave a TGI [43] greater than 100 µM, a TGI [44] greater than 100 µM and a TGI [45] greater than 100 µM. It also gave a TGI [46] greater than 100 µM, a TGI [47] greater than 100 µM and a TGI [48] greater than 100 µM. It also gave a TGI [49] greater than 100 µM, a TGI [50] greater than 100 µM and a TGI [51] greater than 100 µM. The TGI [52] was greater than 100 µM, the TGI [53] was greater than 100 µM and the TGI [54] was greater than 100 µM. It also gave a TGI [55] greater than 100 µM and a TGI [56] greater than 100 µM.
